Data published in patent publication US8802597B2, “Herbicidal pyrimidines” (E I du Pont de Nemours and Company, priority 2003, dated 2014).

Legend:
Format in all cases: in vivo
[1] = tested on: winter barley (Hordeum vulgare); experiment: Test C postemergence; details: for Plant response rating, Barley: scale 0 to 100
Outline: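 We sprayed seeded pots preemergence and 2–18 cm seedlings postemergence with test chemicals in a non-phytotoxic solvent mixture including surfactant. Greenhouse plants were visually compared with untreated controls at 12 to 14 days and scored 0 (no effect) to 100 (complete control).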

[2] = tested on: Russian thistle (Salsola kali); experiment: Test D pre/postemergence; details: scale 0 to 100 (100 = complete control)
Description: (§1) Seeds of plant species selected from catchweed bedstraw (galium; Galium aparine), common chickweed (Stellaria media), kochia (Kochia scoparia), lambsquarters (Chenopodium album), pigweed (Amaranthus retroflexus), Russian thistle (Salsola kali), wild buckwheat (Polygonum convolvulus), wild mustard (Sinapis arvensis), winter barley (Hordeum vulgare), and wheat (Triticum aestivum) were planted and treated preemergence with test chemicals formulated in a non-phytotoxic solvent mixture which included a surfactant.
(§2) At the same time, plants selected from these crop and weed species were treated with postemergence applications of some of the test chemicals formulated in the same manner. Plants ranged in height from 2 to 18 cm (1- to 4-leaf stage) for postemergence treatments. Treated plants and controls were maintained in a controlled growth environment for 15 to 25 days after which time all species were compared to controls and visually evaluated. Plant response ratings, summarized in Table D, are based on a scale of 0 to 100 where 0 is no effect and 100 is complete control. A dash (-) response means no test result.

[3] = tested on: catchweed bedstraw (galium; Galium aparine); experiment: Test D pre/postemergence; details: scale 0 to 100 (100 = complete control)
Description: as §1, §2

[4] = tested on: common chickweed (Stellaria media); experiment: Test D pre/postemergence; details: scale 0 to 100 (100 = complete control)
Description: as §1, §2

[5] = tested on: kochia (Kochia scoparia); experiment: Test D pre/postemergence; details: scale 0 to 100 (100 = complete control)
Description: as §1, §2

[6] = tested on: lambsquarters (Chenopodium album); experiment: Test D pre/postemergence; details: scale 0 to 100 (100 = complete control)
Description: as §1, §2

[7] = tested on: pigweed (Amaranthus retroflexus); experiment: Test D pre/postemergence; details: scale 0 to 100 (100 = complete control)
Description: as §1, §2

[8] = tested on: wheat (Triticum aestivum); experiment: Test D pre/postemergence; details: scale 0 to 100 (100 = complete control)
Description: as §1, §2

[9] = tested on: wild buckwheat (Polygonum convolvulus); experiment: Test D pre/postemergence; details: scale 0 to 100 (100 = complete control)
Description: as §1, §2

[10] = tested on: wild mustard (Sinapis arvensis); experiment: Test D pre/postemergence; details: scale 0 to 100 (100 = complete control)
Description: as §1, §2

[11] = 62 g ai/ha, scale 0 to 100 (0 no effect, 100 complete control)
[12] = 125 g ai/ha, scale 0 to 100 (0 no effect, 100 complete control)

COC(=O)c1nc(-c2ccc(Br)cc2)nc(N)c1Br [Compound 129]
40: Plant response rating (scale of 0 to 100), Barley ([1]; 31 g ai/ha)
45: Barley plant response rating [1, 11] | Barley plant response rating [1, 12]
35: Plant response rating (scale of 0 to 100), Barley ([1]; 16 g ai/ha)

CNN=Cc1nc(C2CC2)nc(N)c1Br [Compound 49]
30: Plant response rating, Barley ([1]; 250 g ai/ha)
40: Plant response rating, Barley ([1]; 500 g ai/ha)
20: Barley plant response rating [1, 12]
0: Barley plant response rating [1, 11]

COC(=O)c1nc(C2CC2)nc(N)c1Cl [Compound 9, methyl 6-amino-5-chloro-2-cyclopropyl-4-pyrimidinecarboxylate]
90: Plant response rating, Russian Thistle ([2]; Postemergence, 31 g ai/ha) | Plant response rating, Wheat ([8]; Postemergence, 62 g ai/ha)
98: Plant response rating, Kochia ([5]; Preemergence, 31 g ai/ha)
80: Plant response rating, Pigweed ([7]; Preemergence, 31 g ai/ha) | Plant response rating, Wheat ([8]; Postemergence, 31 g ai/ha) | Plant response rating, Buckwheat, Wild ([9]; Postemergence, 31 g ai/ha) | Plant response rating, Mustard, Wild ([10]; Postemergence, 31 g ai/ha) | Plant response rating, Mustard, Wild ([10]; Postemergence, 62 g ai/ha)
65: Plant response rating, Russian Thistle ([2]; Postemergence, 16 g ai/ha) | Plant response rating, Chickweed ([4]; Preemergence, 16 g ai/ha) | Plant response rating, Lambsquarters ([6]; Preemergence, 16 g ai/ha) | Plant response rating, Pigweed ([7]; Postemergence, 16 g ai/ha) | Plant response rating, Pigweed ([7]; Preemergence, 16 g ai/ha) | Plant response rating, Buckwheat, Wild ([9]; Postemergence, 16 g ai/ha) | Plant response rating, Mustard, Wild ([10]; Postemergence, 16 g ai/ha)
100: Plant response rating, Russian Thistle ([2]; Postemergence, 62 g ai/ha) | Plant response rating, Russian Thistle ([2]; Postemergence, 125 g ai/ha) | Plant response rating, Russian Thistle ([2]; Preemergence, 16 g ai/ha) | Plant response rating, Russian Thistle ([2]; Preemergence, 31 g ai/ha) | Plant response rating, Russian Thistle ([2]; Preemergence, 62 g ai/ha) | Plant response rating, Russian Thistle ([2]; Preemergence, 125 g ai/ha) | Plant response rating, Galium ([3]; Postemergence, 16 g ai/ha) | Plant response rating, Galium ([3]; Postemergence, 31 g ai/ha) | Plant response rating, Galium ([3]; Postemergence, 62 g ai/ha) | Plant response rating, Galium ([3]; Postemergence, 125 g ai/ha) | Plant response rating, Galium ([3]; Preemergence, 31 g ai/ha) | Plant response rating, Galium ([3]; Preemergence, 62 g ai/ha) | Plant response rating, Galium ([3]; Preemergence, 125 g ai/ha) | Plant response rating, Chickweed ([4]; Postemergence, 31 g ai/ha) | Plant response rating, Chickweed ([4]; Postemergence, 62 g ai/ha) | Plant response rating, Chickweed ([4]; Postemergence, 125 g ai/ha) | Plant response rating, Chickweed ([4]; Preemergence, 62 g ai/ha) | Plant response rating, Chickweed ([4]; Preemergence, 125 g ai/ha) | Plant response rating, Kochia ([5]; Postemergence, 31 g ai/ha) | Plant response rating, Kochia ([5]; Postemergence, 62 g ai/ha) | Plant response rating, Kochia ([5]; Postemergence, 125 g ai/ha) | Plant response rating, Kochia ([5]; Preemergence, 62 g ai/ha) | Plant response rating, Kochia ([5]; Preemergence, 125 g ai/ha) | Plant response rating, Lambsquarters ([6]; Postemergence, 31 g ai/ha) | Plant response rating, Lambsquarters ([6]; Postemergence, 62 g ai/ha) | Plant response rating, Lambsquarters ([6]; Postemergence, 125 g ai/ha) | Plant response rating, Lambsquarters ([6]; Preemergence, 31 g ai/ha) | Plant response rating, Lambsquarters ([6]; Preemergence, 62 g ai/ha) | Plant response rating, Lambsquarters ([6]; Preemergence, 125 g ai/ha) | Plant response rating, Pigweed ([7]; Postemergence, 31 g ai/ha) | Plant response rating, Pigweed ([7]; Postemergence, 62 g ai/ha) | Plant response rating, Pigweed ([7]; Postemergence, 125 g ai/ha) | Plant response rating, Pigweed ([7]; Preemergence, 62 g ai/ha) | Plant response rating, Pigweed ([7]; Preemergence, 125 g ai/ha) | Plant response rating, Wheat ([8]; Postemergence, 125 g ai/ha) | Plant response rating, Buckwheat, Wild ([9]; Postemergence, 62 g ai/ha) | Plant response rating, Buckwheat, Wild ([9]; Postemergence, 125 g ai/ha) | Plant response rating, Buckwheat, Wild ([9]; Preemergence, 62 g ai/ha) | Plant response rating, Buckwheat, Wild ([9]; Preemergence, 125 g ai/ha)
95: Plant response rating, Chickweed ([4]; Preemergence, 31 g ai/ha) | Plant response rating, Lambsquarters ([6]; Postemergence, 16 g ai/ha) | Plant response rating, Mustard, Wild ([10]; Postemergence, 125 g ai/ha)
60: Plant response rating, Chickweed ([4]; Postemergence, 16 g ai/ha) | Plant response rating, Wheat ([8]; Preemergence, 16 g ai/ha) | Plant response rating, Buckwheat, Wild ([9]; Preemergence, 16 g ai/ha) | Plant response rating, Mustard, Wild ([10]; Preemergence, 16 g ai/ha)
50: Plant response rating, Wheat ([8]; Postemergence, 16 g ai/ha)
75: Plant response rating, Wheat ([8]; Preemergence, 31 g ai/ha) | Plant response rating, Wheat ([8]; Preemergence, 62 g ai/ha)
70: Plant response rating, Kochia ([5]; Preemergence, 16 g ai/ha) | Plant response rating, Mustard, Wild ([10]; Preemergence, 31 g ai/ha)
85: Plant response rating, Galium ([3]; Preemergence, 16 g ai/ha) | Plant response rating, Kochia ([5]; Postemergence, 16 g ai/ha) | Plant response rating, Buckwheat, Wild ([9]; Preemergence, 31 g ai/ha) | Plant response rating, Mustard, Wild ([10]; Preemergence, 62 g ai/ha) | Plant response rating, Mustard, Wild ([10]; Preemergence, 125 g ai/ha)

COC(=O)c1nc(C2CC2)nc(N=CN(C)C)c1Br [Compound 19]
25: Plant response rating (scale of 0 to 100), Barley ([1]; 16 g ai/ha) | Plant response rating (scale of 0 to 100), Barley ([1]; 31 g ai/ha)
45: Plant response rating, Barley ([1]; 125 g ai/ha)
35: Barley plant response rating [1, 11]

CCOC(=O)C(OC(C)=O)c1nc(C2CC2)nc(N)c1Br (stereo not drawn) [Compound 47]
65: Plant response rating, Russian Thistle ([2]; Postemergence, 125 g ai/ha) | Plant response rating, Galium ([3]; Postemergence, 31 g ai/ha) | Plant response rating, Chickweed ([4]; Postemergence, 125 g ai/ha) | Plant response rating, Kochia ([5]; Postemergence, 125 g ai/ha) | Plant response rating, Pigweed ([7]; Postemergence, 250 g ai/ha) | Plant response rating, Buckwheat, Wild ([9]; Postemergence, 62 g ai/ha) | Plant response rating, Buckwheat, Wild ([9]; Postemergence, 125 g ai/ha) | Plant response rating, Mustard, Wild ([10]; Postemergence, 125 g ai/ha)
60: Plant response rating, Chickweed ([4]; Postemergence, 62 g ai/ha) | Plant response rating, Buckwheat, Wild ([9]; Postemergence, 31 g ai/ha) | Plant response rating, Mustard, Wild ([10]; Postemergence, 62 g ai/ha)
98: Plant response rating, Galium ([3]; Postemergence, 250 g ai/ha)
45: Plant response rating, Russian Thistle ([2]; Postemergence, 31 g ai/ha) | Plant response rating, Kochia ([5]; Postemergence, 31 g ai/ha) | Plant response rating, Lambsquarters ([6]; Postemergence, 250 g ai/ha) | Plant response rating, Wheat ([8]; Postemergence, 250 g ai/ha)
70: Plant response rating, Russian Thistle ([2]; Postemergence, 250 g ai/ha) | Plant response rating, Chickweed ([4]; Postemergence, 250 g ai/ha) | Plant response rating, Buckwheat, Wild ([9]; Postemergence, 250 g ai/ha) | Plant response rating, Mustard, Wild ([10]; Postemergence, 250 g ai/ha)
75: Plant response rating, Galium ([3]; Postemergence, 62 g ai/ha) | Plant response rating, Kochia ([5]; Postemergence, 250 g ai/ha)
50: Plant response rating, Kochia ([5]; Postemergence, 62 g ai/ha) | Plant response rating, Pigweed ([7]; Postemergence, 62 g ai/ha)
35: Plant response rating, Chickweed ([4]; Postemergence, 31 g ai/ha) | Plant response rating, Lambsquarters ([6]; Postemergence, 31 g ai/ha) | Plant response rating, Lambsquarters ([6]; Postemergence, 62 g ai/ha) | Plant response rating, Pigweed ([7]; Postemergence, 31 g ai/ha) | Plant response rating, Wheat ([8]; Postemergence, 62 g ai/ha) | Plant response rating, Wheat ([8]; Postemergence, 125 g ai/ha)
55: Plant response rating, Russian Thistle ([2]; Postemergence, 62 g ai/ha) | Plant response rating, Pigweed ([7]; Postemergence, 125 g ai/ha) | Plant response rating, Mustard, Wild ([10]; Postemergence, 31 g ai/ha)
80: Plant response rating, Galium ([3]; Postemergence, 125 g ai/ha)
30: Plant response rating, Wheat ([8]; Postemergence, 31 g ai/ha)
40: Plant response rating, Lambsquarters ([6]; Postemergence, 125 g ai/ha)

COC(=O)c1nc(C(C)C)nc(N)c1Br [Compound 3]
30: Plant response rating, Barley ([1]; 250 g ai/ha)
0%: plant injury at 62 g/ha ([1]; Hordeum vulgare, post-emergence, 62 g ai/ha, scale 0 to 100 (0 no effect, 100 complete control), read-out: Barley plant response rating)
0: Plant response rating (scale of 0 to 100), Barley ([1]; 31 g ai/ha) | Plant response rating, Barley ([1]; 125 g ai/ha)
